Patent US9346832B2, “Gold complexes for use in the treatment of cancer” (University of Kwazulu-Natal, priority 2010, dated 2016)
Like-named read-outs stand apart in the source and are kept apart here.

What was measured:
[1] = system: 60 human cancer cell lines; conditions: cited from earlier work; for GI50 / CC50 / IC50: mean over 60 cell lines; for CC50: read-out: LC50, 50% cell death; for IC50: read-out: TGI or IC50, total growth inhibition
[2] = system: 60 human cancer cell lines; assay: NCI-60 five-dose screen, mean cytotoxicity over 60 human cancer cell lines; format: cell-based
Experimental: The gold(III) complexes of this invention were screened by the National Cancer Institute (NCI, USA) against their panel of 60 different human cancer cell lines. These screens initially entail a one-dose test for the compound at a high concentration (10 μM; e.g. FIGS. 5, 6 and 7). Compounds with a good cytotoxicity profile in the one-dose screen are then subjected to a five-dose screen for the full panel of sixty human cancer cell lines (the so-called 5-dose NCI-60 screen). In the full five-dose screen, the compound concentration is varied in five doses from 10^−8 M to 10^−4 M in order to establish a dose-response function of percentage cell growth versus the concentration of the test agent. […] Similar data will shortly be available for compounds 1.1Y^1b and 1.5Y^1a as these derivatives are in 5-dose screens currently at the NCI.
The mean cytotoxicity data summarized in Scheme 7 were compiled over 60 human cancer cell lines from the NCI database. […] The dose-response curves for the bis(pyrrolide-imine) chelates of the invention are steeper, or harder, than those of all the compounds compared in Scheme 7.

[3] = HepG2 cytotoxicity / cell health parameters; format: cell-based, human; conditions: human
Text: (§1) The data for MA_AuPr in Scheme 22 are consistent with a cytotoxic compound capable of inducing apoptosis (programmed cell death) and, indeed, a compound that performs better than the control drug. […] Other cell health parameters which respond are a loss of total cells per well (indicating toxicity due to necrosis, apoptosis or a reduction in cellular proliferation), an increase in nuclear area (indicating necrosis or G2 cell cycle arrest), an increase in cytochrome c release (implying activation of a signalling cascade leading to apoptosis). The latter is particularly relevant as we may rule out cell death by necrosis in the case of MA_AuPr. The mechanism of action of the compound thus leads to cell cycle arrest in the G2 phase and the induction of apoptosis (highly desirable for an anticancer drug). […] Since the compound induces cytochrome c release, cytotoxicity involves apoptosis.

[4] = system: HepG2 human hepatocellular carcinoma cells; assay: HepG2 cytotoxicity / cell health parameters; format: cell-based; conditions: human
Text: as §1

human cancer cell lines = assay: Cytotoxicity summary (NCI-60 or independent cytotoxicity screen), Scheme 19; format: cell-based
calf thymus DNA = assay: Calf-thymus DNA titration (absorption hypochroism); format: binding
Experimental: FIG. 20 is a graph of the titration of MA_AuPr (1.1a) with calf-thymus DNA in aqueous pH 7 phosphate buffer at 37° C.
The hypochroism of the absorption band of the complex at 383 nm was monitored as a function of added ctDNA. […] Ka is the equilibrium binding constant in M^−1, Ct is the total Au(III) complex concentration, and s is the binding site size.

HeLa cells = assay: HeLa cell cytotoxicity dose-response; format: cell-based
Experimental: FIG. 9 is a graph of the dose-response curves (HeLa cells, pH 7.0, 37° C.) for three macrocyclic Au(III) chelates. IC50 values for the complexes against HeLa cells obtained from the least squares data fits (graph) are given in the 3rd column of the table.
A summary of the average cytotoxicity data over 60 human cancer cell lines for 1.1a-1.1c and comparison with selected commercial and patented cytotoxic agents is shown in Scheme 7. […] The more abrupt the curve, the harder the dose-response function.

topoisomerase II = topoisomerase II (Homo sapiens, UniProt P11388); assay: Topoisomerase II DNA cleavage/relaxation assay, supercoiled plasmid DNA, EB gel (TopoGEN protocol); format: biochemical; conditions: for action on topoisomerase II: compared with VP-16 (etoposide); for concentration at which topoisomerase II poisoning (DNA cleavage induction) is observed: supercoiled plasmid DNA, linear cleavage products
Sequence of topoisomerase II (P11388 whole entry): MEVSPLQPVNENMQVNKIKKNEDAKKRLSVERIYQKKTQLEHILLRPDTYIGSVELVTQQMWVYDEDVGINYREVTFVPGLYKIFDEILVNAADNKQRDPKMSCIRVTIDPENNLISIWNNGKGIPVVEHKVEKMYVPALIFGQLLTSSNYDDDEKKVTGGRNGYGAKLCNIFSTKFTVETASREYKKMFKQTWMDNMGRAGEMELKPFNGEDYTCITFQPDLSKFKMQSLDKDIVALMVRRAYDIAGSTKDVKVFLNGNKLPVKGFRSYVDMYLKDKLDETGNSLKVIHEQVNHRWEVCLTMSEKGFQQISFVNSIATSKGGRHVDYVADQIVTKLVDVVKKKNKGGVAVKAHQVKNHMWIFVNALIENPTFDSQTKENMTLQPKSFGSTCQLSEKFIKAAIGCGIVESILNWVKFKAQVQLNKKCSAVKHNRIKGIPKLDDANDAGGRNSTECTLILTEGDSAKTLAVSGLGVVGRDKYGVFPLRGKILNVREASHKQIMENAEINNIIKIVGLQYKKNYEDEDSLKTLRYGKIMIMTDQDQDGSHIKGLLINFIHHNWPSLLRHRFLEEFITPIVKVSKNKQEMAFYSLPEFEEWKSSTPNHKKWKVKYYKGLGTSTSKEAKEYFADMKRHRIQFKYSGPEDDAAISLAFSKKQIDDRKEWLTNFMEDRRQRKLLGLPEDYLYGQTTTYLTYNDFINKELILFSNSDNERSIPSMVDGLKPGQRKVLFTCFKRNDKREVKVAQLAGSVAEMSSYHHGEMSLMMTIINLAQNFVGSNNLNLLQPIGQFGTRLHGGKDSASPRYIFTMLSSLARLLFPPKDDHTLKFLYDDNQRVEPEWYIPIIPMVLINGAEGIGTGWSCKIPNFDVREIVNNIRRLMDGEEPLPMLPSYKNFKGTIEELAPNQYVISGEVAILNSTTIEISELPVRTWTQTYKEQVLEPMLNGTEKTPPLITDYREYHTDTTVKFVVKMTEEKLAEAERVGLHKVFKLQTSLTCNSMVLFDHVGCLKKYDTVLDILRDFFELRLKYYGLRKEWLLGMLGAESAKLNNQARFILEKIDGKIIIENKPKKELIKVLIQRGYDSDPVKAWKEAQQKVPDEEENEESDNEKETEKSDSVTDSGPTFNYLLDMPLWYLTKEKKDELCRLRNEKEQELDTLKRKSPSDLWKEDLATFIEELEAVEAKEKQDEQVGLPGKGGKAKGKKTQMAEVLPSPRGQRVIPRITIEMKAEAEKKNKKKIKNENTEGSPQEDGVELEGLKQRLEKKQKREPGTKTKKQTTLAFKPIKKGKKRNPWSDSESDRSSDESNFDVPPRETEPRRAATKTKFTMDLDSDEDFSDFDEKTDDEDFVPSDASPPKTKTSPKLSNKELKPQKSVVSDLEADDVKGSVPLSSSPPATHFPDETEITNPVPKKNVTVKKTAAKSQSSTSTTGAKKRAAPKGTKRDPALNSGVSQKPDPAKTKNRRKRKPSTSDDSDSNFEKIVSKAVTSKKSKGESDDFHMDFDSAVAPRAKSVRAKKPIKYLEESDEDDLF
Experimental: The compound MA_AuPr clearly targets topoisomerase II if the statistical analysis of the NCI data for a range of drugs shown in FIG. 13 is correct. MA_AuPr was therefore assayed for its action against topoisomerase II in vitro using TopoGEN's standard protocol over a wide range of test agent concentrations (0.005 to 500 μM) in order to obtain direct experimental proof for the apparent cellular target of the compound to ensure that a fundamental understanding of the mechanism of action of this new class of Au(III) compounds exists. These experiments were performed by the company TopoGEN and at the University of Central Florida. The DNA cleavage experiments were performed in vitro using purified topoisomerase I and II enzymes and supercoiled plasmid DNA as the substrate. The controls that were used in the experiment were linear marker DNA as well as reactions without the gold(III) complex and high concentrations of VP16. The compound VP16 (etoposide) is a commercially available DNA intercalator chemotherapeutic agent, widely used in the treatment of lung and testicular cancers as well as lymphomas. The choice of VP16 as a control is based on the fact that it is a poor topoisomerase II inhibitor, but is a powerful topoisomerase II poison which arrests the enzyme's cycle at the ternary drug-enzyme-DNA cleavage complex stage, leading to observation of linear DNA fragments upon SDS denaturation of the enzyme (i.e., work-up). Comparison of the VP16 results with the results of MA_AuPr would therefore give a good indication of whether the gold(III) chelate is an inhibitor or a poison.
Lane 1 of the gel (FIG. 14) is the control experiment with only supercoiled plasmid DNA present. The control contains no topoisomerase II and so the DNA supercoiled structure cannot be relaxed, as the topoisomerase II enzyme would usually do. […] At a higher concentration of the test agent (50 μM), both supercoiled plasmid DNA and linear cleavage products are observed. […] At very high concentrations (>500 μM), MA_AuPr behaves exclusively as a catalytic inhibitor of the enzyme.
The role of gold(III) in the efficacy of the compound was determined by modifying the structure of MA_AuPr by replacing the Au(III) cation with Pd(II) to afford MA_PdPr (the isoelectronic square planar coordination complex of known structure and geometry^31) and carrying out the DNA relaxation assay with topoisomerase II as before. The metal-free ligand (MA_H2PrLig) was tested under identical conditions to confirm that the mechanism of action is related to the intact structure of the metal chelate.

Caco-2 transport = conditions: human
Text: The Caco-2 data are especially important as many drugs fail due to poor membrane transport/absorption.

[5] = comparison drugs, NCI database, 50% growth inhibition
[6] = MA series: pH 7.0 phosphate buffer at 37° C.

## Cl.Cl.[Cl][Au-]12[n+]3ccccc3-c3cccc([n+]31)-c1cccc[n+]12 [(Au^III(terpy)Cl]Cl2]
[1]; [5]
  GI50: 0.13 µM
[1]; comparison drugs, NCI database
  CC50: 73 µM
  IC50: 11 µM

## CC[C@@]1(O)C(=O)OCc2c1cc1n(c2=O)Cc2cc3ccccc3nc2-1 [Camptothecin]
[1]; comparison drug
  GI50: 0.04 µM
[1]; [5]
  GI50: 0.04 µM
[1]; comparison drugs, NCI database
  CC50: 33 µM
  IC50: 0.89 µM
[2]; on average over the full 60 cell lines
  increase in concentration from 50% growth inhibition to 50% cell kill: 825 fold

## CN(C)CCCN1c2ccccc2Sc2ccc(Cl)cc21 [Chlorpromazine, reference compound]
[3]; Cell Loss AC50
  AC50: 7.8 µM
[3]; Cytochrome C release AC50
  AC50: 16 µM
[3]; DNA structure AC50
  AC50: 196 µM
[3]; Membrane permeability AC50
  AC50: 30 µM
[3]; Mitochondrial mass AC50
  AC50: 5.4 µM
[3]; Mitochondrial membrane potential AC50
  AC50: 50 µM
[3]; Nuclear Area AC50
  AC50: 100 µM
[4]
  Cell Loss MEC: 100 µM
  Cytochrome C release MEC: 11 µM
  DNA structure MEC: 11 µM
  Mitochondrial mass MEC: 3.7 µM
  Mitochondrial membrane potential MEC: 3.7 µM
  Nuclear Area MEC: >11 µM

## C1=[N+]2CCCC[N+]3=Cc4ccc5[n]4[Au-]23[n]2c1ccc2-c1nc2ccccc2nc1-5.F[P-](F)(F)(F)(F)F [KA_AumacroBu, {12,13,14,15-tetrahydro-6,9:18,21-diepimino[1,6]diazacycloctadecino[12,13-b]quinoxalinato}gold(III) hexafluorophosphate(V)]
Human cancer cell lines
  Cytotoxicity: active
Calf thymus DNA; KA series: pH 7.0 15% DMSO-TRIS buffer at 25° C.
  Ka (calf thymus DNA): 1.20(9) × 10^6 M^−1
HeLa cells
  GI50: ~0.1 µM
HeLa cells; pH 7.0, 37° C.
  IC50: 0.37 µM
HeLa cells; read-out: LC50 (the source's name)
  CC50: < 10 µM

## ClC1C[N+]2=Cc3ccc[n]3[Au-]23[n]2cccc2C=[N+]3C1.F[P-](F)(F)(F)(F)F [MA_AuCl, 2,2′-{(2-chloropropane-1,3-diyl)bis[nitrilo(E)methylylidene]}bis(pyrrol-1-ido)gold(III) hexafluorophosphate(V)]
Human cancer cell lines
  Cytotoxicity: active
Calf thymus DNA; [6]
  Ka (calf thymus DNA): 3.91(7) × 10^5 M^−1

## CC1(C)C[N+]2=Cc3ccc[n]3[Au-]23[n]2cccc2C=[N+]3C1.[Cl-] [MA_AuDM, 2,2′{(2,2-dimethylpropane-1,3-diyl)bis[nitrilo(E)methyl-ylidene]}bis(pyrrol-1-ido)gold(III) chloride]
Human cancer cell lines
  Cytotoxicity: active
Calf thymus DNA; [6]
  Ka (calf thymus DNA): 1.63(3) × 10^5 M^−1
[2]; 60 human cancer cell lines
  fraction of cancer cell lines equivalently or more susceptible than to cisplatin: around 12%
[2]; mean over 60 human cancer cell lines, 50% cell death, read-out: LC50 (the source's name)
  CC50: 72 µM
[2]; mean over 60 human cancer cell lines, 50% growth inhibition
  GI50: 12 µM
[2]; mean over 60 human cancer cell lines, 100% (total) growth inhibition, read-out: TGI or IC50
  TGI (concentration for total growth inhibition): 31 µM
[2]; plot of −log(GI50/M) versus cisplatin, FIG. 10
  growth inhibition activity relative to cisplatin, on average: 91%

## CCOC1C[N+]2=Cc3ccc[n]3[Au-]23[n]2cccc2C=[N+]3C1.F[P-](F)(F)(F)(F)F [MA_AuOEt, 2,2{(2-ethoxypropane-1,3-diyl)bis[nitrilo(E)methylylidene]}bis(pyrrol-1-ido)gold(III) hexafluorophosphate(V)]
Human cancer cell lines
  Cytotoxicity: active
Calf thymus DNA; [6]
  Ka (calf thymus DNA): 1.01(4) × 10^6 M^−1

## C(=NCCCN=Cc1ccc[nH]1)c1ccc[nH]1 [MA_H2PrLig]
Topoisomerase II
  action on topoisomerase II: inactivity
  concentration at which topoisomerase II poisoning (DNA cleavage induction) is observed: 500 µM

## C(=NCCCN=Cc1ccc[n-]1)c1ccc[n-]1.[Pd+2] [MA_PdPr]
Topoisomerase II; DNA-cleavage induction in presence of topoisomerase II
  weaker effect than the gold(III) complex: 100 fold
Topoisomerase II
  action on topoisomerase II: diminished activity
  concentration at which topoisomerase II poisoning (DNA cleavage induction) is observed: 50 µM

## CO[C@@]12[C@H](COC(N)=O)C3=C(C(=O)C(C)=C(N)C3=O)N1C[C@@H]1N[C@@H]12 [Mitomycin]
[1]; [5]
  GI50: 0.71 µM
[1]; comparison drugs, NCI database
  IC50: 6.5 µM

## CNC(=C[N+](=O)[O-])NCCSCc1ccc(CN(C)C)o1 [Ranitidine]
Caco-2 transport
  Papp A→B at 2 h, 10 µM: 0.7 ×10⁻⁶ cm/s
  Papp B→A at 2 h, 10 µM: 2.3 ×10⁻⁶ cm/s
  efflux ratio at 2 h, 10 µM: 3.3

## CC(=O)CC(c1ccccc1)c1c(O)c2ccccc2oc1=O (stereo not drawn) [Warfarin]
Caco-2 transport; Caco-2
  Papp A→B at 2 h, 10 µM: 37 ×10⁻⁶ cm/s
  Papp B→A at 2 h, 10 µM: 8 ×10⁻⁶ cm/s
  efflux ratio at 2 h, 10 µM: 0.2

## O=NN(CCCl)C(=O)NCCCl [carmustine]
[1]; selected human cancer cell lines, data not shown
  mean −log(GI50): 4.20
